Data taken from PMC8310591, “Production of trans-cinnamic acid by whole-cell bioconversion from L-phenylalanine in engineered Corynebacterium glutamicum” (Microbial Cell Factories, 2021).

Target: T1, SmPAL (Streptomyces maritimus, UniProt Q9KHJ9)
T1 construct: gene encP; native gene amplified from pHB-104, expressed from pHCMS-SmPAL (PH36 promoter) in Corynebacterium glutamicum ATCC 13032; 56 kDa; no tag mentioned; whole cells, not purified
T1 sequence (Q9KHJ9 1-523): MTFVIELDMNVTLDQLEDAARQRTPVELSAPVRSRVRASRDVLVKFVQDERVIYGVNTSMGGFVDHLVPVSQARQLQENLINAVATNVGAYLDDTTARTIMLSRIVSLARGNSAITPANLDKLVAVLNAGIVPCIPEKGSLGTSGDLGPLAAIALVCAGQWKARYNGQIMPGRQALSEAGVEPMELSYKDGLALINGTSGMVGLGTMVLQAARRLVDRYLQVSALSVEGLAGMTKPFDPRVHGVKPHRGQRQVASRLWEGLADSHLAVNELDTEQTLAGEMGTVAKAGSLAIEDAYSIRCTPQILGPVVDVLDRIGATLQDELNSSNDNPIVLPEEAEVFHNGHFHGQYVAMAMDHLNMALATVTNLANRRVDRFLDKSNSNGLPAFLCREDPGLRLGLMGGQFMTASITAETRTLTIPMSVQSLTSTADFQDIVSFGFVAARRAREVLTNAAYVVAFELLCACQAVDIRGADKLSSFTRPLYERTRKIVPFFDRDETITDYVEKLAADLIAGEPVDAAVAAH
Test: whole-cell bioconversion, HPLC of L-Phe and t-CA
Assay type: cell-based
Conditions: C. glutamicum harboring pHCMS-SmPAL; 18.2 mM L-Phe; 100 mM Tris-HCl pH 7.5; 30 °C; product trans-cinnamic acid

N[C@@H](Cc1ccccc1)C(=O)O [L-phenylalanine]
whole-cell bioconversion, HPLC of L-Phe and t-CA: the bioconversion of L-Phe to t-CA was immediately observed
